Experimental findings from patent US20240101552A1, “CARBONYL HETEROCYCLIC COMPOUND AND APPLICATION THEREOF” (SHANGHAI PHARMACEUTICALS HOLDING CO., LTD., priority 2020, published 2024) are described below.

“Also recorded” adds a separate entry of the source.

Assay [1] addresses LANCL2 (Homo sapiens (Human), UniProt Q9NS86). The assay is described as follows: SPR (BIACORE S200) kinetic determination of LANCL2-small molecule interactions. Type of assay: binding. Conditions: for Kd: immobilized LANCL2, 1:1 binding model, pH 6.5, 25° C.; for Rmax (RU): maximum binding force. On the procedure:
1.1 Reagent Materials • Ligand: LANCL2 • Running buffer: 20 mM MES, 150 mM NaCl, 0.05% P20, pH 6.5, 1% DMSO
Injection conditions for small molecule compounds: a flow rate of 30 μL/min, a binding time of 60 s, a dissociation time of 300 s.
Running buffer: 20 mM MES, 150 mM NaCl, 0.05% P20, pH 6.5, 1% DMSO.
Sample chamber temperature: 25° C.; analysis temperature: 25° C.
Kinetic determination of LANCL2-small molecule interactions was performed. The kinetic parameters of small molecules BT-11 and L-1 to 60 (analytes) binding to LANCL2 (ligand) were determined using BIACORE S200. Data were generated in triplicate in a dose-dependent manner (5-8 titration points) and analyzed to determine binding models (Langmuir, conformational shifts, etc.), real-time association and dissociation constants, and equilibrium dissociation constants. SPR technology allows the validation of specific LANCL2-phytochemical interactions as well as an increased insight into the gold standard of binding mechanisms and rates. Experiments were performed on carboxymethyl polydextrose (CM5) sensor chips by amine-coupled covalent attachment of LANCL2. Data were analyzed with BIACORE S200T200 evaluation software (version 1), so as to determine affinity binding constants (KD) using a 1:1 binding model.
An optical technique for detecting molecular interactions, SPR, was used to measure the binding affinity between LANCL2 and a ligand thereof (compound to be tested). Purified recombinant LANCL2 protein was immobilized on a BIACORE sensor chip and small molecules were injected onto the protein surface using an equipment of microfluidic system. The change in total mass on the chip surface, corresponding to a small binding to the protein, was measured. […] The equilibrium dissociation constant (Kd) was often used to describe the affinity between a ligand and a protein, such as affinity degree of a ligand binding to a specific protein. Ligand-protein affinity was affected by non-covalent intermolecular interactions between two molecules, such as hydrogen bonding, electrostatic interactions, hydrophobic bonds and van der Waals forces. The steady-state affinity (Kd) for each interaction could be measured by plotting equilibrium binding levels against compound concentrations.

Assay [2] has as its system TNBS-induced colitis in mice. In words: Alleviating effect on TNBS-induced colitis in mice, study (II). In kind it is in vivo, Balb/c mice. On the procedure:
Sixty female Balb/c mice, weighing about 18 g and 8-10 weeks old, were randomly divided into twelve groups, including eleven model groups and one Sham control group. The administration was started on Day 1 and ended on Day 7, with the compounds prepared once a day, as detailed in Table 1 for route and frequency of administration, and Table 2 for compound preparation and volume of administration.
Balb/c mice weighing about 18-20 g were anesthetized with 0.25 mL of 1.25% Avertin on Day 0. The mice in the model group were perfused rectally with 150 μL of 1% TNBS solution (ethanol with a final concentration of 50%). The mice in the Sham control group were perfused rectally with 50% ethanol on Day 0.
The mouse colon was photographed, measured for the length, and weighed after the contents were removed. The colon of each mouse was then cut longitudinally at ½, rolled in a uniform direction by Swiss-roll method and fixed in neutral paraformaldehyde.
The DAI scoring consisted of 3 parts, taking the method of mixed scoring of weight change, stool and blood in stool, and the specific DAI scoring criteria were shown in Table 3. Throughout the experiment, the DAI scoring of all mice was done by the same person to ensure the scale consistency of the scoring.
The experimental data were statistically analyzed by ANOVA method, and data of other groups and the Vehicle (PO, QD) group were analyzed by Dunnett's test to compare data of multiple groups, *p<0.05, **p<0.01, ***p<0.005, ****p<0.0001

Where [3] appears, read: vs Vehicle group, L compounds PO 50 mpk BID, Mesalazine PO 100 mpk QD.
Where [4] appears, read: vs Vehicle group, PO, 50 mpk, BID.

Sequence of LANCL2 (Q9NS86 whole entry, species assumed): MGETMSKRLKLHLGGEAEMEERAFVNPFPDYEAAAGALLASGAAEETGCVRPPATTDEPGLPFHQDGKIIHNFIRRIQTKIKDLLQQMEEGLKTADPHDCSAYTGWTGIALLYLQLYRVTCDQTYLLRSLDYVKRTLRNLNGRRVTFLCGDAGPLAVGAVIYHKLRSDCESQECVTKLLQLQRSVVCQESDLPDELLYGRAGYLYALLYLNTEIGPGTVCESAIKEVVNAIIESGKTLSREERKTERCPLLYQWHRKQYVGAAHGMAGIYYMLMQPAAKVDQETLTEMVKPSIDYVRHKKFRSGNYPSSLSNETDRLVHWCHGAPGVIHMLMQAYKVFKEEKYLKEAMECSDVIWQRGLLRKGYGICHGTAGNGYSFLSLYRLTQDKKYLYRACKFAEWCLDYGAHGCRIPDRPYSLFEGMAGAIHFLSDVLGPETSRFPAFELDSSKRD

On to `O=C(NC1C2CN(C(=O)c3cccc(-c4nc5ccccc5[nH]4)n3)CC21)c1cccc(-c2nc3ccccc3[nH]2)n1` [Embodiment L-11, N-(3-(6-(1H-benzo[d]imidazol-2-yl)picolinoyl)-3-azabicyclo[3.1.0]hexan-6-yl)-6-(1H-benzo[d]imidazol-2-yl)pyridinecarboxamide], for which, in assay [1], the “binding activity compared with positive reference compound BT-11” value was “better binding activities than the positive reference compound BT-11”, the Kd was found to be 3.67 µM and the “Rmax (RU)” value turned out to be 4.2 RU. Besides, in assay [2] (PO, 50 mpk, BID), the “alleviation of TNBS-induced colitis / inflammation (conclusion)” value was “could significantly alleviate the occurrence of inflammation in mice with TNBS-induced colitis; also recorded: could effectively alleviate TNBS-induced colitis in mice”; the “alleviation of symptoms of diarrhea and blood in stool” value is “could effectively alleviate the symptoms of diarrhea and blood in stool in TNBS model mice”; the “alleviation of weight loss caused by TNBS-induced colitis (body weight changes and DAI scores combined)” value is on record as “could effectively alleviate the weight loss in mice caused by TNBS-induced colitis”. Moreover, in assay [2] (setting [3]), the “colon weight (FIG. 18B)” value is given as “less colon weight” and the “weight-to-length ratio of colon (FIG. 18C)” value was “significantly lower”. In assay [2] (setting [4]), the “DAI scores (FIG. 16B)” value was “significantly lower”, the “blood in stool score (FIG. 17B)” value was “significantly slowed down”, the “colon length (FIG. 18A)” value is reported as “significantly more colon length” and the “diarrhea score (FIG. 17A)” value is listed as “significantly slowed down”. Further, the “weight loss of the mice (FIG. 16A)” value in assay [2] (setting [4]) is reported as “significantly slowed down”.

On to `Cc1cn(-c2cccc(C(=O)N3CC4C(C3)C4NC(=O)c3cccc(-c4nc5ccccc5[nH]4)n3)c2)cn1` [Embodiment L-93, 6-(1H-benzo[d]imidazol-2-yl)-N-(3-(3-(4-methyl-1H-imidazol-1-yl)benzoyl)-3-azabicyclo[3.1.0]hexane-6-yl)picolinamide], for which, in assay [1], binding was put at a Kd of 5.84 µM and the “Rmax (RU)” value was found to be 8 RU.

On to `O=C(NC1C2CN(C(=O)c3cccc(-c4nc5ccccc5s4)c3)CC21)c1cccc(-c2nc3ccccc3[nH]2)n1` [Embodiment L-77, 6-(1H-benzo[d]imidazol-2-yl)-N-(3-(3-(benzo[d]thiazol-2-yl)benzoyl)-3-azabicyclo[3.1.0]hexane-6-yl)picolinamide], for which, in assay [1], the “binding activity compared with positive reference compound BT-11” value is “better binding activities than the positive reference compound BT-11”, the dissociation constant (Kd) came to 1.9 µM and the “Rmax (RU)” value is listed as 7.3 RU.

Regarding `O=C(c1cccc(-c2nc3ccccc3[nH]2)n1)N1CCC2(CC1)CCN(C(=O)c1cccc(-c3nc4ccccc4[nH]3)n1)CC2` [Embodiment L-9, (3,9-diazaspiro[5.5]undecane-3,9-diyl)bis((6-(1H-benzo[d]imidazol-2-yl)pyridin-2-yl)methanone)], in assay [1], the “binding activity compared with positive reference compound BT-11” value is “better binding activities than the positive reference compound BT-11”, binding was put at a Kd of 3.44 µM and the “Rmax (RU)” value came out at 3.9 RU.

As for `O=C(c1cccc(Nc2ccccc2)n1)N1CCC2(CCN(C(=O)c3cccc(-c4nc5ccccc5[nH]4)n3)C2)C1` [Embodiment L-65, (7-(6-(1H-benzo[d]imidazol-2-yl)picolinoyl)-2,7-diazaspiro[4.4]non-2-yl)(6-(phenylamino)pyridin-2-yl)methanone], in assay [1], the equilibrium dissociation constant (Kd) came to 26 µM and the “Rmax (RU)” value amounted to 6.5 RU.

As for `Cc1ccc2cc(C(=O)N3CC4CN(C(=O)c5cccc(-c6nc7ccccc7[nH]6)n5)CC4C3)ccc2n1` [Embodiment L-125, (5-(6-(1Hbenzo[d]imidazol-2-yl)picolinoyl)hexahydropyrrolo[3,4-c]pyrrol-2(1H)-yl)(2-methylquinolin-6-yl)methanone], in assay [1], the Kd worked out at 23.5 µM and the “Rmax (RU)” value worked out at 5.2 RU.

Take `O=C(c1cccc(-c2nc3ccccc3[nH]2)n1)N1CCN(C(=O)c2cccc(-c3nc4ccccc4[nH]3)n2)CC1` [BT-11, reference compound]: in assay [1], the Kd is 4.46 µM and the “Rmax (RU)” value was 3.6 RU. Besides, the “weight loss of the mice (FIG. 16A)” value in assay [2] (setting [4]) is reported as “not significantly slowed down”.

As to `NC(=O)c1sccc1NC(=O)c1ccc(C(=O)N2CCC3(CC2)CCN(C(=O)c2cccc(-c4cn5ccccc5n4)c2)CC3)cc1` [Embodiment L-96, 3-(4-(9-(3-(imidazo[1,2-a]pyridin-2-yl)benzoyl)-3,9-diazaspiro[5.5]undecane-3-carbonyl)benzamido)thiophene-2-carboxamide], in assay [1], the “binding activity compared with positive reference compound BT-11” value was “better binding activities than the positive reference compound BT-11”, the Kd was determined as 1.91 µM and the “Rmax (RU)” value is given as 2.3 RU.

As for `O=C(c1cccc(-c2cn3ccccc3n2)c1)N1CCC2(CC1)CCN(C(=O)c1cccc(Nc3ccccc3)n1)CC2` [Embodiment L-72, (9-(3-(imidazo[1,2-a]pyridin-2-yl)benzoyl)-3,9-diazaspiro[5.5]undecan-3-yl)(6-(phenylamino)pyridin-2-yl)methanone], in assay [1], binding was put at a Kd of 6.93 µM and the “Rmax (RU)” value is on record as 5.3 RU.

As for `O=C(N[C@H]1[C@@H]2CN(C(=O)c3cccc(Nc4ccccc4)n3)C[C@@H]21)c1cccc(Nc2ccccc2)n1` [Embodiment L-101], in assay [1], the affinity, expressed as Kd, was 23.3 µM and the “Rmax (RU)” value is listed as 5.5 RU.

In the case of `O=C(c1cccc(-c2nc3ccccc3[nH]2)n1)N1CCC(c2nc3ccccc3[nH]2)CC1` [Embodiment L-57, (4-(1H-benzo[d]imidazol-2-yl)piperidin-1-yl)(6-(1H-benzo[d]imidazol-2-yl)pyridin-2-yl)methanone], in assay [1], the Kd turned out to be 8.02 µM and the “Rmax (RU)” value was 8 RU.

Consider `NC(=O)c1sccc1NC(=O)c1ccc(C(=O)N2CCN(C(=O)c3cccc(-c4nc5ccccc5[nH]4)n3)CC2)cc1` [Embodiment L-115, 3-(4-(4-(6-(1H-benzo[d]imidazol-2-yl)picolinoyl)piperazine-1-carbonyl)benzamido)thiophene-2-carboxamide], for which, in assay [1], binding was characterised by a dissociation constant (Kd) of 17.7 µM and the “Rmax (RU)” value was found to be 20.8 RU.

On to `O=C(c1cnc2ccccc2c1)N1CC2CN(C(=O)c3cccc(-c4nc5ccccc5[nH]4)n3)CC2C1` [Embodiment L-122, (5-(6-(1Hbenzo[d]imidazol-2-yl)picolinoyl)hexahydropyrrolo[3,4-c]pyrrol-2(1H)-yl)(quinolin-3-yl)methanone], for which, in assay [1], the affinity, expressed as Kd, was 10.3 µM and the “Rmax (RU)” value is reported as 7 RU.

What is called Kd is the equilibrium constant for the complex coming apart. Low values mean tighter binding, high ones weaker binding.
